Assay results published in a melting point compilation (Tetko et al.; mined from patent text by program, amines drawn as free bases though some values may be those of a salt).

Row | melting point [°C] | Structure (SMILES)
1 | 140 to 141 | CCCc1ccc2c(c1)N(c1ncnc3cc(OC)c(OC)cc13)CC2
2 | 81 to 83 | N#CCNS(=O)(=O)c1ccccc1
3 | 110 | CN(C)CCOc1ccccc1NC(=O)c1cccc2[nH]ccc12
4 | 75 to 77 | Cc1ccc2c(Cl)ccnc2c1N
5 | 276 to 277 | O=C(O)c1cccc(-c2cc(-c3ccc(C(F)(F)F)cc3)on2)c1
6 | 161 | CCCC1Cc2c3c(c(C)c(C)c2C1O)OC(C(=O)O)C3 (configuration not stated)
7 | 147 | CCOc1cccc(C)c1N(C(=O)n1nc(OCC)n(C)c1=O)S(N)(=O)=O
8 | 91 | O=[N+]([O-])c1cccc(S(=O)(=O)NCC2CC2)c1
9 | 160 to 162 | CSc1nccc(-c2c3cccnc3n3c(NC(C)=O)nccc23)n1
10 | 139 | Cc1ccc2nc(-c3ccccc3)cc(OCc3ccccc3)c2c1
11 | 197 | O=C(NC(=O)c1c(F)cccc1F)Nc1ccc(C(F)(F)F)cc1F
12 | 78 to 79 | N#Cc1cn(Cc2ccccc2)nn1
13 | 109 to 110 | CC1(C)OC(/C=C/c2ccc(Br)cc2)=CC1=O
14 | 110 to 112 | CCOC(=O)C1=C(NC(=O)Nc2ccc(Cl)c(C(=O)OCC)c2)CCC1
15 | 101 to 103 | SC12CC3CC(CC(C3)C1)C2
16 | 97 to 98 | CCN(CC)CCNC(=O)N1CCc2cc(OC)c(OC)cc2C1c1ccccc1 (configuration not stated)
17 | 53 to 55 | CCOC(=O)c1c(C(F)(F)F)nc(C(F)(F)F)c(C)c1OC(C)C
18 | 205 to 207 | O=C(CSc1nc2ccccc2s1)NC1(C(=O)O)Cc2ccc(-c3ccc(Cl)cc3)cc2C1 (configuration not stated)
19 | 150 to 160 | Cc1cc(N)cc(C)c1S(=O)(=O)NCCSCCN
20 | 110 to 116 | Cc1cccc(-c2[nH]c(C(C)C)nc2-c2cccc(-c3ccc(S(=O)(=O)N4CCN(C)CC4)cc3)c2)n1
21 | 182 to 185 | O=C1CN(Cc2ccccc2)c2cc(-c3cccc(Cl)c3)ccc2N1
22 | 127 to 128 | Cc1c(C)c(N2CCN(C(=O)OC(C)(C)C)CC2)c(C)c2c1OC(C)(C)C2N1CCCC1 (configuration not stated)
23 | 88 | CC1Oc2ccc(Cl)cc2N(CC(O)CO)C1=O (configuration not stated)
24 | 206 to 207 | CC(C)(Oc1ccc(NC(=O)c2cc(Cl)cc(Cl)c2)cc1)C(=O)O
25 | 43 to 45 | CCCCCCC1=CC(O)(C(Br)Br)N(c2ccccc2)C1=O (configuration not stated)

Row | melting point [°C] | Structure (SMILES)
26 | 201 to 203 | Oc1noc2ccc(F)cc12
27 | 199 to 200 | Nc1cc(C(=O)O)cc(OCc2ccc(Cl)cc2)c1Cc1ccccc1
28 | 127 to 128 | O=c1[nH]c(=O)n(CCCCCl)c2ccccc12
29 | 198 to 200 | COc1ccc(C(=O)Nc2ccccc2)cc1NS(=O)(=O)c1ccc(F)cc1F
30 | 124 to 126 | FC(F)(F)c1cccc(OC(c2ccc(Cl)cc2)c2nnn[nH]2)c1 (configuration not stated)
31 | 159 | O=[N+]([O-])c1cccc(NC(=S)NCc2cccnc2)c1
32 | 129 to 130 | CCN(CC)C(=O)c1cc(-c2ccc(OC)cc2)c2ccccc2c1OC
33 | 148 to 150 | CC(C)(C)c1cc(CCc2ccccc2NC(=O)N2CCc3ccccc3C2)cc(C(C)(C)C)c1O
34 | 128 to 132 | CCOc1ccc2c(c1)C(Cl)(c1ccccc1Cl)C(=O)N2 (configuration not stated)
35 | 127 to 128 | CO[C@@H]1CCCC(c2ccc(C(=O)N3Cc4cccn4Cc4ccccc43)cc2C)=C1C
36 | 85 to 87 | O=C(CNc1ccc2[nH]c(=O)[nH]c2c1)N1CCC(Cc2ccc(F)cc2)CC1
37 | 209 to 211 | O=C(NCCSc1ccccn1)Nc1cc(N2CC(c3ccccc3)OC2=O)ccn1 (configuration not stated)
38 | 179 to 180 | CC(C)c1cn2ccccc2c1S(=O)(=O)c1ccc(O)cc1
39 | 80 to 82 | CC(C)Oc1c(C(=O)NCc2ccccc2)oc2ccc(Cl)cc12
40 | 201 | CC(C)(C)OC(=O)Nc1cc(N2CCOC2=O)c(-c2ccc(F)cc2)cc1[N+](=O)[O-]
41 | 180 to 182 | Cc1cc(NC(=O)C(CS)Cc2ccccc2)c(C)c(C(=O)O)c1 (configuration not stated)
42 | 216 to 217 | CC1(C)Cc2c(c(N3CCOCC3)nc3sc4c(NCCCN5CCCC5=O)ncnc4c23)CO1
43 | 75 to 77 | COP(=O)(OC)C(C)(C)O
44 | 205 to 207 | COc1cc(-c2nc(C)c(C(=O)O)s2)cc(OC)c1OC
45 | 110 to 111 | O[C@H]1CC[C@H](c2ccc(Br)cc2)CC1
46 | 146 | COc1ccc(C#CC(O)c2cccc(CN(O)C(N)=O)c2)cc1OC (configuration not stated)
47 | 230 | COc1ccc(-c2nc3ccc(O)cc3[nH]2)cc1C12CC3CC(CC(C3)C1)C2
48 | 190 to 192 | CCCCc1nc2cccc(C)c2c(=O)n1C1CCC(=O)NC1=O (configuration not stated)
49 | 188 | Cc1csc(NC(=S)Nc2cc(Cl)ccc2C)n1
50 | 78 to 80 | O[C@@H]1CN(Cc2ccccc2)C[C@H]1Oc1c(Cl)cccc1Cl (relative stereo)

Row | melting point [°C] | Structure (SMILES)
51 | 227 to 235 | O=Cc1ccc(-c2ccc(C(=O)O)cc2)c([N+](=O)[O-])c1
52 | 165 | O=C1CCC(c2ccccc2)(c2ccccc2)C2CN(C(Cc3ccccc3)=NCc3ccccc3)CC12 (configuration not stated)
53 | 147 to 150 | CC1=NN(C(=O)c2ccccc2Cl)C2(O)CCCC12 (configuration not stated)
54 | 275 to 277 | CCn1nc2c(N)nc3ccccc3c2c1CC1(F)CCOCC1
55 | 178 to 181 | CCOC(=O)C1=C(C)NC(C)=C(C(=O)OCC)C1c1ccccc1C=Cc1ccc(Cl)cc1
56 | 126 | COc1cccc(NC(=O)C(C)(C)C)c1
57 | 112 to 113 | Cc1ccc2c3c(ccc2n1)OC[C@H](CN1CCN(c2cccc(C)c2C)CC1)O3
58 | 235 to 237 | CC(=O)N1CCC(Nc2ncc3cc(-c4ccccc4C)c(=O)n(C4CCOCC4)c3n2)CC1
59 | 64.5 to 66 | Nc1cc(S)c(Cl)cc1F
60 | 134 | CCOC(=O)c1ncn2c1CN=C(NCC(OC)OC)c1sccc1-2
61 | 95 to 98 | O=[N+]([O-])c1ccccc1Nc1cccc(Nc2ccc(C(F)(F)F)cc2[N+](=O)[O-])c1
62 | 107 to 110 | CC(C(N)=O)c1ccc(Oc2ccc(F)cc2F)cc1 (configuration not stated)
63 | 86 to 87 | CCCO/N=C(\C(=O)OC)c1csc(NC(=O)CCl)n1
64 | 88 to 89 | Cc1cccc(C(O)CNC(=C[N+](=O)[O-])NCCSCc2cc(C)c(CN(C)C)s2)c1 (configuration not stated)
65 | 136 to 138 | CCN1C(=O)C(C)(C)C(=O)N(C)c2cc(CN(CCn3ccc4oc(C)cc4c3=O)Cc3cccc4c3OCO4)ccc21
66 | 164 to 166 | COC(=O)c1cc(-n2c(=O)c3c(n(C)c2=O)CCC3)ccc1Cl
67 | 226 | CC(=O)Nc1ccc([N+](=O)[O-])s1
68 | > 260 | Cc1nc2c([nH]1)C(=O)c1ccccc1C2=O
69 | 101 to 102 | CCCCCCCN(CCCCCSc1nc2ncccc2[nH]1)C(=O)NC(C)C
70 | 150 to 152 | CC1CN(c2ccc(Cl)c(Cl)c2)N=C1NC=O (configuration not stated)
71 | 252 | Cc1ccccc1-n1cc(C#N)c(=O)[nH]c1=O
72 | 211 to 212 | FC(F)(F)c1cc(Nc2nc3ccccc3o2)ccc1Br
73 | 153 to 155 | COC(=O)c1c(O)c2ccccc2n1-c1ccc(OC)cc1
74 | 142 to 143 | Cc1nnc(-c2ccc3occ(-c4cnn(Cc5ccccc5F)c4)c3c2)o1
75 | 198 to 205 | COC(=O)CCCc1cc2cc(Cl)ccc2n1S(=O)(=O)c1ccc2c(c1)CCC(=O)N2

Row | melting point [°C] | Structure (SMILES)
76 | 200 to 201 | COc1cc(Cl)nn2c(-c3ccnc(N)c3)c(-c3ccc(F)c(C)c3)nc12
77 | 113 to 120 | OC(c1ccc(OCc2ccccc2)cc1)c1ccc(OCc2ccccc2)cc1
78 | 115 to 116 | CCSc1cn(C)cc(-c2ccc(Cl)c(C(F)(F)F)c2)c1=O
79 | 120 to 121 | COc1ccc2c(c1)C(=NO)CCO2
80 | 57 to 58 | CCCCCCCCCCC1CCCC1C(=O)Nc1c(OC)ccc2ncccc12 (configuration not stated)
81 | 114 to 117 | CC(C)(C)OC(=O)N[C@H](Cc1ccc(Cl)c(Cl)c1)C(=O)N1CCC[C@H]1C(=O)NC1CCc2nc(N)ncc2C1 (some centres not stated)
82 | 112 to 114 | COc1ccc(OC(C)c2ccnc3ncnn23)cc1 (configuration not stated)
83 | 190 | COc1cc2ncnc(Nc3cccc(Br)c3)c2cc1OCCN1CC(=O)O[C@@H](C)C1
84 | 136 to 138 | CCOC(=O)/C(=N\OC1CCCC1)c1csc(N)n1
85 | 218 to 220 | OC1CCCc2c(-c3ccc4nc(-c5ccc(Cl)cc5)cn4c3)cccc21 (configuration not stated)
86 | 125 | CC(=O)CC(=S)Nc1ccccc1
87 | 96 to 98 | Cc1c(C)c2c(c(C)c1OCc1ccncc1)C(c1ccc(C(C)C)cc1)C1(CCN(C)CC1)O2 (configuration not stated)
88 | 229 to 230 | CCc1c(C)[nH]c(=O)c(N(C)C)c1Cc1cc(C)cc(C)c1
89 | 147 to 149 | C=CCOc1nc(Nc2ccc(OC)nc2)nc2c1ncn2CCCC
90 | 123 to 124 | C(=Nc1ccc(-c2c[nH]cn2)cc1)Nc1ccccc1
91 | 211 to 212 | CCOC(=O)C1=Cc2cc(C#N)ccc2NC1C(F)(F)F (configuration not stated)
92 | 192 to 195 | CCc1ccc2c(c1)c(-c1ccccc1Cl)c(NC(=O)Nc1ccc(F)cc1F)c(=O)n2C
93 | 78 to 81 | O=C(c1ccccc1F)c1cc(Cl)ccc1I
94 | 200 to 202 | Cn1ncc(NCCCN2CCC(c3noc4cc(F)ccc34)CC2)c(Cl)c1=O
95 | 226 to 230 | CCCn1nc(C(C)C)c(C(=O)O)c1Cc1ccc(-c2ccccc2C(=O)O)cc1
96 | 172 to 174 | CCCn1c(=O)c2[nH]c(C34CC5CC3CC(C4)C5=O)nc2n(CCC)c1=O
97 | 84 to 85 | CC(C)(C=O)NC(=O)OC(C)(C)C
98 | 171 | O=c1c2ccccc2nnn1CCN1CCC(c2c[nH]c3ccccc23)CC1

Row | Structure (SMILES) | melting point [°C]
99 | Nc1nc2c(s1)CC(CN1CC=C(c3ccccc3)CC1)CC2 (configuration not stated) | 187 to 190
100 | C[C@](O)(COc1ccc(F)cc1)C(=O)Nc1ccc(C#N)c(C(F)(F)F)c1 | 139 to 140
101 | O=C(Nc1cccc(Cl)c1)ONC1=Nc2ccc(Cl)cc2C(c2ccccc2)=NC1 | 158 to 159
102 | Cc1cc(C2=NOC(c3cc(Cl)cc(Cl)c3)(C(F)(F)F)C2)ccc1C(=O)O (configuration not stated) | 146 to 148
